In the supplement of paper PMC8253809:

Columns and labels:
DIPGX29 [1] = H3.3 K27M diffuse intrinsic pontine glioma line; assay: growth inhibition relative to DMSO (0) and positive control (1) (fraction); higher = more growth inhibition
Procedure: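 Paxalisib (GDC0084) x mirdametinib (PD0325901) dose matrix on pHGG cell lines and astrocyte controls, 7 days, adherent 384-well. CellTiter-Glo RLU was normalised (no log2) to fractional activity between DMSO (0) and the positive control (1). Each combination was tested in two plate orientations.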

DIPGX37 [2] = H3.3 K27M diffuse intrinsic pontine glioma line; assay: EC50 (inflection of fitted growth-inhibition curve) (log10 M)
Summary of the method: (§1)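 A pin tool was used to add a 10-point threefold dilution series (mean top concentration 35 μM), in triplicate, to patient-derived pHGG/DIPG cell lines and astrocyte controls seeded on 384-well plates coated with 1% Geltrex. After 7 days at 37 °C and 5% CO2 (3 days for iAstro), CellTiter-Glo luminescence was log2-transformed, normalised on each plate to % activity relative to negative (solvent) and positive control wells, and pooled. EC50 and maximal response (yFin) were read from the three- or four-parameter log-logistic fit with the lowest AICc.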

DIPGX29 [3] = assay: maximal growth inhibition (yFin) relative to DMSO / staurosporine; higher = more efficacious
Summary of the method: as §1

DIPGX37 [4] = assay: as above
Summary of the method: as §1

DIPGX7 = H3.3 K27M diffuse intrinsic pontine glioma line; assay: as above
Summary of the method: as §1

DIPGX9 = diffuse intrinsic pontine glioma line; assay: as above
Summary of the method: as §1

HGGX2 = paediatric high-grade glioma line; assay: as above
Summary of the method: as §1

HGGX39 = paediatric high-grade glioma line; assay: as above
Summary of the method: as §1

HGGX42 = H3.3 G34R paediatric high-grade glioma line; assay: as above
Summary of the method: as §1

HGGX6 = H3.3 G34R paediatric high-grade glioma line; assay: as above
Summary of the method: as §1

SUDIPGIV = diffuse intrinsic pontine glioma line; assay: as above
Summary of the method: as §1

SUDIPGVI = diffuse intrinsic pontine glioma line; assay: as above
Summary of the method: as §1

SUDIPGXIII = diffuse intrinsic pontine glioma line; assay: as above
Summary of the method: as §1

SUDIPGXIX = diffuse intrinsic pontine glioma line; assay: as above
Summary of the method: as §1

SUDIPGXVII = diffuse intrinsic pontine glioma line; assay: as above
Summary of the method: as §1

SUDIPGXXI = diffuse intrinsic pontine glioma line; assay: as above
Summary of the method: as §1

iAstro = astrocyte control; assay: as above
Summary of the method: as §1

HABS = astrocyte control; assay: as above
Summary of the method: as §1

O=C(NOC[C@H](O)CO)c1ccc(F)c(F)c1Nc1ccc(I)cc1F + CC1(C)OCCn2c1nc1c(N3CCOCC3)nc(-c3cnc(N)nc3)nc12 [GDC0084]
growth inhibition, DIPGX29 [1]
Conditions | compound 1 concentration 0.009766 µM | compound 1 concentration 0.01953 µM | compound 1 concentration 0.03906 µM | compound 1 concentration 0.07812 µM | compound 1 concentration 0.15625 µM | compound 1 concentration 0.3125 µM | compound 1 concentration 0.625 µM | compound 1 concentration 1.25 µM | compound 1 concentration 5 µM | compound 1 concentration 20 µM
compound 2 concentration 0.03906 µM | 0.638 | 0.646 | 0.648 | 0.701 | 0.69 | 0.738 | 0.748 | 0.755 | 0.895 | 0.958
compound 2 concentration 0.07812 µM | 0.15 | 0.207 | 0.157 | 0.241 | 0.208 | 0.306 | 0.424 | 0.498 | 0.796 | 0.919
compound 2 concentration 0.15625 µM | 0.213 | 0.194 | 0.204 | 0.242 | 0.215 | 0.307 | 0.451 | 0.518 | 0.813 | 0.909
compound 2 concentration 0.3125 µM | 0.306 | 0.272 | 0.343 | 0.357 | 0.359 | 0.415 | 0.506 | 0.652 | 0.859 | 0.947
compound 2 concentration 0.625 µM | 0.411 | 0.38 | 0.431 | 0.462 | 0.487 | 0.495 | 0.632 | 0.697 | 0.917 | 0.981
compound 2 concentration 1.25 µM | 0.531 | 0.526 | 0.609 | 0.603 | 0.627 | 0.625 | 0.79 | 0.803 | 0.952 | 0.985
compound 2 concentration 5 µM | 0.911 | 0.936 | 0.919 | 0.945 | 0.966 | 0.973 | 0.966 | 0.993 | 0.999 | 1
compound 2 concentration 20 µM | 0.933 | 0.947 | 0.948 | 0.968 | 0.964 | 0.984 | 0.989 | 0.996 | 1 | 1

CCN1CCN(Cc2ccc(Nc3ncc(F)c(-c4cc(F)c5nc(C)n(C(C)C)c5c4)n3)nc2)CC1 [ABEMACICLIB]
Conditions | EC50 (log10 M) | maximal growth inhibition [%]
DIPGX7 | – | 110
DIPGX9 | – | 43.3
DIPGX29 [3] | – | 38.4
DIPGX37 [2] | -6.56 | –
DIPGX37 [4] | – | 99.9
HGGX2 | – | 42.3
HGGX6 | – | 69.4
HGGX39 | – | 84.4
HGGX42 | – | 30.7
SUDIPGIV | – | 76.8
SUDIPGVI | – | 48.9
SUDIPGXIII | – | 52.5
SUDIPGXIX | – | 110
SUDIPGXVII | – | 61.1
SUDIPGXXI | – | 96.9
iAstro | – | 59

COCC1(CO)C(=O)C2CCN1CC2 (stereo not given) [APR-246]
Conditions | EC50 (log10 M) | maximal growth inhibition [%]
DIPGX7 | – | 102
DIPGX9 | – | 105
DIPGX29 [3] | – | 106
DIPGX37 [2] | -4.79 | –
DIPGX37 [4] | – | 111
HGGX2 | – | 97.9
HGGX6 | – | 90.1
HGGX42 | – | 99.8
SUDIPGIV | – | 105
SUDIPGVI | – | 102
SUDIPGXIII | – | 97.3
SUDIPGXIX | – | 96.4
SUDIPGXVII | – | 99
SUDIPGXXI | – | 112
iAstro | – | 90.9

CN1[C@@H]2CC[C@H]1C[C@@H](OC(=O)c1cc(Cl)cc(Cl)c1)C2 [BEMESETRON]
Conditions | EC50 (log10 M) | maximal growth inhibition [%]
DIPGX7 | – | 90.5
DIPGX9 | – | 43.8
DIPGX29 [3] | – | 89.8
DIPGX37 [2] | -5.32 | –
DIPGX37 [4] | – | 102
HABS | – | 20.8
HGGX2 | – | 49.4
HGGX6 | – | 63.8
HGGX39 | – | 81.4
HGGX42 | – | 86.2
SUDIPGIV | – | 77.1
SUDIPGXIX | – | 77.2
SUDIPGXVII | – | 44.2
SUDIPGXXI | – | 104
iAstro | – | 36.1

Cc1noc2c1-c1ccccc1C(c1ccc(Cl)cc1)=N[C@H]2CC(N)=O [CPI-0610]
Conditions | maximal growth inhibition [%]
DIPGX7 | 116
DIPGX9 | 113
DIPGX29 [3] | 90.8
HABS | 72.8
HGGX2 | 69.1
HGGX6 | 41.6
HGGX39 | 109
HGGX42 | 80.1
SUDIPGIV | 75.1
SUDIPGVI | 106
SUDIPGXIX | 127
SUDIPGXVII | 63.3
SUDIPGXXI | 116
iAstro | 39

CC1(C)OCCn2c1nc1c(N3CCOCC3)nc(-c3cnc(N)nc3)nc12 [GDC0084] + O=C(NOC[C@H](O)CO)c1ccc(F)c(F)c1Nc1ccc(I)cc1F [PD0325901]
growth inhibition, DIPGX29 [1]
Conditions | compound 1 concentration 0.009766 µM | compound 1 concentration 0.01953 µM | compound 1 concentration 0.03906 µM | compound 1 concentration 0.07812 µM | compound 1 concentration 0.15625 µM | compound 1 concentration 0.3125 µM | compound 1 concentration 0.625 µM | compound 1 concentration 1.25 µM | compound 1 concentration 5 µM | compound 1 concentration 20 µM
compound 2 concentration 0.03906 µM | 0.0494 | 0.0257 | 0.0988 | 0.197 | 0.244 | 0.304 | 0.508 | 0.598 | 0.891 | 0.96
compound 2 concentration 0.07812 µM | 0.246 | 0.221 | 0.24 | 0.295 | 0.368 | 0.426 | 0.565 | 0.653 | 0.915 | 0.964
compound 2 concentration 0.15625 µM | 0.138 | 0.16 | 0.18 | 0.286 | 0.308 | 0.402 | 0.515 | 0.704 | 0.92 | 0.97
compound 2 concentration 0.3125 µM | 0.198 | 0.252 | 0.293 | 0.316 | 0.389 | 0.507 | 0.616 | 0.696 | 0.949 | 0.981
compound 2 concentration 0.625 µM | 0.331 | 0.369 | 0.463 | 0.439 | 0.481 | 0.54 | 0.619 | 0.781 | 0.967 | 0.993
compound 2 concentration 1.25 µM | 0.511 | 0.539 | 0.543 | 0.583 | 0.62 | 0.67 | 0.806 | 0.869 | 0.983 | 0.999
compound 2 concentration 5 µM | 0.801 | 0.807 | 0.824 | 0.837 | 0.855 | 0.88 | 0.924 | 0.956 | 0.997 | 0.997
compound 2 concentration 20 µM | 0.903 | 0.914 | 0.9 | 0.927 | 0.923 | 0.969 | 0.97 | 0.989 | 1 | 1

C=CCn1c(=O)c2cnc(Nc3ccc(N4CCN(C)CC4)cc3)nc2n1-c1cccc(C(C)(C)O)n1 [MK-1775]
Conditions | EC50 (log10 M) | maximal growth inhibition [%]
DIPGX7 | – | 25
DIPGX9 | – | 41.4
DIPGX29 [3] | – | 39.2
DIPGX37 [2] | -6.2 | –
DIPGX37 [4] | – | 22.2
HABS | – | 26.7
HGGX2 | – | 31
HGGX6 | – | 24.9
HGGX39 | – | 43.8
HGGX42 | – | 34.5
SUDIPGIV | – | 46.7
SUDIPGXIX | – | 37.7
SUDIPGXVII | – | 25.1
SUDIPGXXI | – | 91.8
iAstro | – | 36.6
